Patent US20170298209A1, “USE OF A QUINONE COMPOUND IN BUILDING MATERIALS” (Arkion Life Sciences, LLC, priority 2014, published 2017)

Assays:
[1] = Solubility of the quinone compound in aqueous solution / solvents; assay type: physicochemical
From the text: The quinone compound can be applied to the substrate in the form of a solution. The solution can be an aqueous or semi-aqueous solution. The quinone compound can be soluble or semi-soluble in the solution. Depending on the pH of the solution the quinone compound can be soluble or partially soluble. The partially soluble quinone can exist as either suspended crystalline particles, fine particles, colloidal particles, etc. […] This compound can exist in solution as particles, crystals, colloids, etc. In some embodiments, the semi-aqueous or non-aqueous solutions containing suitable particles, crystals, colloids, etc. can be used to achieve penetration of a quinone compound into and under the surface of a substrate.
(§1) A power pole made from southern yellow pine is treated with a sodium salt of 9,10 dihyroxyanthracene (also known as AHQ or anthrahydroquinone) to render the pole resistant to pest and/or fungal damage. The sodium salt of 9,10 dihyroxyanthracene is stable in an oxygen free and high pH environment (e.g., above pH 11). In the high pH solution, the compound has a solubility of around 10% (wt/v). A 10% solution of AHQ is prepared in an aqueous solution having a pH of about 12. The pole is soaked in the bath of 10% AHQ for about 20-30 minutes at 70-80° C. with little or no air exposure. A portion of the AHQ penetrates into the top layer of the pole. The depth of penetration can range from 1 mm to 200 mm.
(§2) After soaking, the pole is transferred to a water tank where the surface would be neutralized. The water having a nominal pH of about 7. Alternatively, the pole is dried in air without rinsing. AHQ is unstable in the presence of air (e.g., oxygen) unless it is maintained in a high pH solution. If exposed to a lower pH or air (e.g., oxygen), the AHQ can be converted to 9,10 anthraquinone (also known as AQ). AQ is insoluble in almost every solvent including water. Therefore, AQ precipitates out of solution and becomes trapped in the top layer of the pole. AQ forms both on the surface and inside the wood fibers of the upper layers of the pole. This outer layer of pole is now both termite and woodpecker proof. Because anthraquinones can be effective fungicides, the pole is now also fungi proof.

Pileated woodpeckers = experiment: Caged Pileated woodpecker trials (two-choice then one-choice test) with treated and untreated utility pole sections; assay type: in vivo, Pileated woodpecker (Dryocopus pilealus); conditions: poles treated with AHQ versus untreated poles; FIGS. 2-4
Description: Overview. A series of caged Pileated woodpecker trials are conducted using power pole segments both untreated and treated with a quinone. The treatment segments contain the quinone compound in a range of concentrations. The quinone compound is also applied by either painting or soaking. The quinone compound is applied in a high pH solution (i.e., in a water soluble form). Thereafter, the segments are treated with a lower pH solution to convert the quinone to a water insoluble form. The bird's preference to nest building excavation for each segment is measured. Both the soaked and painted segments show lower incidence of nesting evacuation. […]
The initial placement of the treated and the untreated poles in each enclosure was randomly determined. […] At the beginning of each test day, starting on day 2 (0800), woodpecker damage to each pole was measured by collecting and weighing the wood chips that were removed. […] The camera recorded woodpecker activity on poles for during the first two hours of each day during the test period. […]
The weight of wood chips removed by Pileated woodpeckers follow a three-factor repeated measures design, where observations are repeated on each bird for all three factors: treatment (chemical) time (pre and post-treatment), and pole (control and treated)). All data was analyzed as mixed liner models. […]

[2] = Stability of AHQ towards air (oxygen) and pH; assay type: physicochemical
Description: as §1
as §2, with “This outer layer of pole is now both termite and woodpecker proof. Because anthraquinones can be effective fungicides, the pole is now also fungi proof.” left out

Oc1c2ccccc2c(O)c2ccccc12 [9,10-anthrahydroquinone]
solubility in aqueous solutions ([1]; slightly basic or neutral pH values): only slightly soluble or insoluble

[Na+].[Na+].[O-]c1c2ccccc2c([O-])c2ccccc12 [AHQ, sodium salt of 9,10 dihyroxyanthracene]
weight of wood chips removed from poles (Pileated woodpeckers): surprisingly less than the weight of wood chips removed from untreated poles | solubility in aqueous solutions ([1]; high pH (e.g., pH 11 or more)): readily soluble | solubility ([1]; in the high pH solution (e.g., above pH 11)): around 10 % (wt/v) | stability ([2]; oxygen free and high pH environment (e.g., above pH 11)): stable | stability ([2]; presence of air (e.g., oxygen), unless maintained in a high pH solution): unstable

O=C1c2ccccc2C(=O)c2ccccc21 [AQ, 9,10 anthraquinone]
solubility in solvents [1]: insoluble
